Data: patent US11110147B2, “Collagen hydrolysates as a beneficial prebiotic and their effect on joint inflammation and osteoarthritis” (ROUSSELOT B.V., priority 2017, dated 2021)

System: gut microbiome
Assay: Microbial 16S rDNA analysis of fecal samples
Assay type: in vivo, mice
Conditions: 38 mg/day hCol1 or glucosamine, FIG. 10C
Procedure: FIGS. 10A-10C: hCol1 supplementation induces significant change in the gut microbiome. Microbial rDNA analysis was performed on fecal samples collected from lean and obese mice supplemented with control Nutella, 38 mg/day hCol1, or glucosamine. […] FIG. 10A: Principal coordinate analysis of microbial abundance from obese control Nutella (1), obese glucosamine (2), obese hCol1 (3), lean hCol1 (4), lean glucosamine (5) and lean control Nutella (6) mice. […] FIGS. 15A-15G: hCol1 and hCol2 supplementation induces significant change in the gut microbiome and provides protective effects in post-traumatic osteoarthritis. (FIG. 15A) Microbial rDNA analysis was performed on fecal samples collected from chow fed mice supplemented with control Nutella, 38 mg/day hCol1, or 15 mg/day hCol2 for 4 weeks. Bars show relative microbial abundance in the indicated groups. Each bar represents an average of 3 mice. In the chow diet, hCol 1 and 2 tended to have similar effects: Increases in the abundance of Bacteroidales, Lactobacillales, Turicibacterales, and Anaeroplasmatales. […] Panels depicting the tibia uncalcified cartilage area (FIG. 15B), the number of chondrocytes in the tibia uncalcified cartilage (FIG. 15C), the number (FIG. 15D) and percentage (FIG. 15E) of Safranin-O positive (SafO^+) chondrocytes in the tibia uncalcified cartilage, the femur uncalcified cartilage area (FIG. 15F), and the number of chondrocytes in the femur uncalcified cartilage (FIG. 15G) in Sham and DMM chow fed mice supplemented with vehicle (Nutella) (Control DMM), hCol1 (P1 DMM) or hCol2 (P2 DMM) at 12 weeks after injury. FIGS. 16A-16E: (FIG. 16A) Microbial rDNA analysis was performed on fecal samples collected from lean fed mice supplemented with control Nutella, 38 mg/day hCol1, or 15 mg/day hCol2. Bars show relative microbial abundance in the indicated groups. […] Panels depicting the tibia cartilage area (FIG. 16B), the tibia uncalcified cartilage area (FIG. 16C), the number of chondrocytes in the tibia uncalcified cartilage (FIG. 16D), and the percentage (FIG. 16E) of Safranin-O positive (SafO^+) chondrocytes in the tibia uncalcified cartilage in Sham and DMM lean fed mice supplemented with vehicle (Nutella) (Control DMM), hCol1 (P1 DMM) or hCol2 (P2 DMM) at 12 weeks after injury. FIG. 17A-17H: (FIG. 17A) Microbial rDNA analysis was performed on fecal samples collected from high fat (HF) (60% of caloric energy from saturated fat) fed mice supplemented with control Nutella, 38 mg/day hCol1, or 15 mg/day hCol2 for 4 weeks. Bars show relative microbial abundance in the indicated groups. […] Panels depicting the tibia cartilage area (FIG. 17B), the tibia uncalcified cartilage area (FIG. 17C), the number of chondrocytes in the tibia uncalcified cartilage (FIG. 17D), the number of Safranin-O positive (SafO^+) chondrocytes in the tibia uncalcified cartilage (FIG. 17E), the femur uncalcified cartilage area (FIG. 17F), the number of chondrocytes in the femur uncalcified cartilage (FIG. 17G), and the number of Safranin-O positive (SafO^+) chondrocytes in the femur uncalcified cartilage (FIG. 17H) in Sham and DMM high fat diet-fed mice supplemented with vehicle (Nutella) (Control DMM), hCol1 (P1 DMM) or hCol2 (P2 DMM) at 3 weeks after injury. FIG. 19: hCol2 alters the gut microbiome. Mice fed chow or high fat diet for 3 months were supplemented daily with hCol2 (HFD+hCol2) or vehicle (Nutella) (HFD) for 4 weeks. Fecal samples were collected and microbial rDNA analysis was performed. A subset of bacterial species was altered in high fat diet-fed mice compared to chow fed mice, and hCol2 supplementation changed the gut microbiome of these high fat diet-fed mice. Numerous proinflammatory species, particularly Peptococcaceae rc4-4 sp, were reduced in hCol2-supplemented mice (top heat map). Conversely, several anti-inflammatory species were enhanced in hCol2-supplemented animals, including Bifidobacterium pseudolongum (bottom heat map). […]

## N[C@H]1C(O)O[C@H](CO)[C@@H](O)[C@@H]1O (some centres unmarked) [glucosamine]
Lean mice
  relative microbial abundance: Actinobacteria: 12.07%
  relative microbial abundance: Bacteroidetes: 13.4103%
  relative microbial abundance: Firmicutes: 72.6939%
  relative microbial abundance: Tenericutes: 1.1749%
  relative microbial abundance: Verrucomicrobia: 0.0119%
Lean mice, listed as Glucosamine
  relative microbial abundance: Actinobacteria: 12.7091%
Obese mice
  relative microbial abundance: Actinobacteria: 0.4928%
  relative microbial abundance: Bacteroidetes: 11.2335%
  relative microbial abundance: Firmicutes: 88.0274%
  relative microbial abundance: Proteobacteria: 0.0005%
  relative microbial abundance: Verrucomicrobia: 0.2458%
